Experimental data taken from publication PMC5267425, “Identification of small molecule modulators of HIV-1 Tat and Rev protein accumulation” (Retrovirology, 2017).

Test system: cellular gene expression in HeLa rtTA HIV∆Mls cells

SMILES: Cc1cc(NCc2cccnc2)n2ncc(-c3ccc(Cl)cc3)c2n1 [Compound 791, 3-(4-chlorophenyl)-5-methyl-N-(3-pyridinylmethyl)pyrazolo[1,5-a]pyrimidin-7-amine]
- SETMAR expression fold change: 0.745
- SFPQ expression fold change: 0.604
- SFRS13A expression fold change: 1.164
- SH2D4A expression fold change: 1.164
- SH3BGR Mean fold change: 1.680
- SHPK expression fold change: 0.869
- SIAH1 Mean fold change: 1.613
- SIAH2 Mean fold change: 1.494
- SIKE1 expression fold change: 1.279
- SKA2 expression fold change: 0.700
- SLC1A5 Mean fold change: 2.013
- SLC6A9 Mean fold change: 1.846
- SLC6A15 Mean fold change: 1.859
- SLC9A3 Mean fold change: 1.796
- SLC10A3 expression fold change: 0.873
- SLC16A1 expression fold change: 1.148
- SLC22A15 Mean fold change: 2.322
- SLC25A23 expression fold change: 0.855
- SLC26A11 expression fold change: 1.295
- SLC29A1 expression fold change: 0.814
- SLC35B3 expression fold change: 1.282
- SLC38A6 expression fold change: 1.215
- SLC39A6 expression fold change: 1.389
- SMARCA1 expression fold change: 0.805
- SMARCA5 expression fold change: 0.811
- SMARCC1 expression fold change: 0.845
- SMC2 expression fold change: 0.736
- SMC4 expression fold change: 0.769
- SMEK2 expression fold change: 1.332
- SMS expression fold change: 0.802
- SMTN expression fold change: 0.528
- SNAPC5 Mean fold change: 1.498
- SNX7 expression fold change: 0.747
- SNX10 Mean fold change: 2.399
- SOD1 expression fold change: 0.780
- SOX12 expression fold change: 0.979
- SPCS1 expression fold change: 1.045
- SPR expression fold change: 0.726
- SPRED2 Mean fold change: 2.080
- SPRYD4 expression fold change: 0.835
- SPTAN1 expression fold change: 0.613
- SQSTM1 expression fold change: 1.336
- SRPK1 expression fold change: 1.142
- SS18L1 expression fold change: 1.184
- SSR4 expression fold change: 1.121
- ST5 expression fold change: 0.715
- ST6GALNAC4 expression fold change: 1.270
- ST7L expression fold change: 1.363
- STAG3L4 Mean fold change: 1.432
- STAMBP expression fold change: 1.360
- STARD4 expression fold change: 0.603
- STK24 expression fold change: 1.344
- STK36 expression fold change: 1.268
- STK38 expression fold change: 0.829
- STK40 expression fold change: 1.375
- STMN1 expression fold change: 0.737
- STX4 expression fold change: 1.358
- SUN1 expression fold change: 0.880
- SUPT3H expression fold change: 1.089
- SUPT16H expression fold change: 1.113
- SWAP70 expression fold change: 0.801
- SYNPO expression fold change: 0.615
- TAB1 expression fold change: 1.071
- TADA2B expression fold change: 1.205
- TAF1C expression fold change: 1.085
- TAF3 expression fold change: 1.132
- TAF4B expression fold change: 0.875
- TAGLN2 expression fold change: 0.573
- TATDN1 Mean fold change: 1.544
- TBC1D23 expression fold change: 0.831
- TBC1D25 expression fold change: 0.892
- TBCCD1 expression fold change: 1.231
- TBCD expression fold change: 0.769
- TBL1X expression fold change: 1.190
- TBX1 expression fold change: 0.707
- TCEA1 Mean fold change: 2.377
- TCTA expression fold change: 0.691
- TEX2 expression fold change: 1.153
- TEX261 expression fold change: 0.826
- TFAP2A expression fold change: 0.742
- TGDS expression fold change: 1.239
- TGFA Mean fold change: 2.015
- THAP2 Mean fold change: 1.505
- TIGD2 expression fold change: 1.326
- TIGD6 Mean fold change: 1.617
- TIMELESS expression fold change: 1.079
- TIMM17B expression fold change: 1.193
- TIMP4 Mean fold change: 2.098
- TIPRL expression fold change: 1.158
- TLE3 expression fold change: 0.824
- TM4SF1 expression fold change: 0.658
- TM4SF19 Mean fold change: 2.453
- TM9SF4 expression fold change: 1.144
- TMED9 expression fold change: 0.713
- TMEM33 expression fold change: 1.367
- TMEM51 expression fold change: 1.103
- TMEM55A Mean fold change: 1.593
- TMEM68 expression fold change: 1.389
- TMEM69 expression fold change: 0.879
- TMEM120B expression fold change: 1.358
- TMEM126B expression fold change: 1.318
- TMEM128 Mean fold change: 1.475
- TMEM133 expression fold change: 0.678
- TMEM134 expression fold change: 1.333
- TMEM136 Mean fold change: 1.653
- TMEM138 expression fold change: 1.174
- TMEM167B expression fold change: 1.381
- TMEM184B expression fold change: 0.777
- TMSB10 expression fold change: 0.763
- TNKS2 expression fold change: 1.115
- TNS3 expression fold change: 0.625
- TOM1 expression fold change: 1.142
- TOP1 Mean fold change: 1.433
- TOP2B expression fold change: 0.838
- TOR3A Mean fold change: 2.169
- TPD52 expression fold change: 0.814
- TPK1 Mean fold change: 1.463
- TRAPPC6B Mean fold change: 1.516
- TRIB3 Mean fold change: 9.286
- TRIM5 expression fold change: 0.541
- TRIM8 expression fold change: 1.137
- TRIM11 expression fold change: 1.129
- TRIM38 expression fold change: 1.268
- TRIP12 expression fold change: 0.897
- TRIP13 expression fold change: 0.826
- TRMT2A expression fold change: 1.232
- TRNP1 expression fold change: 0.822
- TRNT1 expression fold change: 1.353
- TRUB2 expression fold change: 0.915
- TSEN2 Mean fold change: 1.417
- TSEN15 Mean fold change: 1.483
- TSPAN14 expression fold change: 1.164
- TSR2 expression fold change: 0.870
- TSSK6 Mean fold change: 1.615
- TTC9C expression fold change: 1.292
- TTC13 Mean fold change: 1.539
- TTC17 Mean fold change: 1.465
- TTLL4 expression fold change: 1.144
- TTRAP Mean fold change: 1.772
- TUBA1C expression fold change: 0.608
- TUBGCP4 expression fold change: 1.159
- TXNDC11 expression fold change: 0.839
- TXNRD2 expression fold change: 0.682
- UBAP2L expression fold change: 0.784
- UBAP2 expression fold change: 0.809
- UBE2CBP expression fold change: 1.206
- UBE2E3 expression fold change: 0.823
- UBE2F expression fold change: 1.199
- UBE3A expression fold change: 1.133
- UBL5 expression fold change: 0.749
- UBXN2B Mean fold change: 1.412
- UNC13D expression fold change: 0.656
- UPF1 expression fold change: 0.745
- UPP1 Mean fold change: 1.696
- USP3 expression fold change: 1.367
- USP13 expression fold change: 0.835
- USP43 expression fold change: 0.526
- USP45 expression fold change: 1.299
- VHL expression fold change: 1.356
- VPS4B expression fold change: 0.923
- VPS45 expression fold change: 1.169
- WARS Mean fold change: 4.515
- WBSCR16 expression fold change: 0.745
- WDFY1 expression fold change: 1.061
- WDR67 Mean fold change: 1.463
- WDR73 expression fold change: 1.398
- WDR85 Mean fold change: 1.430
- WDR86 Mean fold change: 1.956
- WI2-3658N16.1 Mean fold change: 2.029
- XBP1 Mean fold change: 1.642
- XPNPEP3 Mean fold change: 1.531
- XPO5 expression fold change: 1.247
- XPO7 expression fold change: 0.941
- XPOT Mean fold change: 2.053
- XRCC6BP1 expression fold change: 1.139
- YAP1 expression fold change: 1.104
- YARS Mean fold change: 1.734
- ZBED1 expression fold change: 0.668
- ZBED5 expression fold change: 1.276
- ZBTB8A expression fold change: 1.143
- ZBTB26 expression fold change: 1.398
- ZBTB34 expression fold change: 1.406
- ZC3H4 expression fold change: 0.785
- ZC3H7A expression fold change: 0.841
- ZC3H8 Mean fold change: 1.710
- ZC3H14 expression fold change: 1.133
- ZCCHC4 expression fold change: 1.276
- ZCCHC8 expression fold change: 1.219
- ZCCHC9 expression fold change: 1.340
- ZFAND1 Mean fold change: 1.472
- ZFP30 expression fold change: 1.219
- ZFP36L2 expression fold change: 1.274
- ZFP64 expression fold change: 1.227
- ZFP161 Mean fold change: 1.683
- ZFYVE20 expression fold change: 1.201
- ZFYVE27 expression fold change: 1.318
- ZHX2 Mean fold change: 1.409
- ZIC2 Mean fold change: 1.423
- ZNF12 expression fold change: 1.245
- ZNF25 Mean fold change: 1.879
- ZNF28 expression fold change: 1.179
- ZNF91 expression fold change: 1.253
- ZNF133 expression fold change: 1.224
- ZNF184 expression fold change: 1.308
- ZNF193 expression fold change: 1.323
- ZNF195 expression fold change: 1.289
- ZNF217 Mean fold change: 1.446
- ZNF239 Mean fold change: 1.543
- ZNF252 Mean fold change: 1.609
- ZNF295 Mean fold change: 1.482
- ZNF319 expression fold change: 1.386
- ZNF320 expression fold change: 1.362
- ZNF354A expression fold change: 1.350
- ZNF354B Mean fold change: 1.466
- ZNF410 Mean fold change: 1.435
- ZNF419 Mean fold change: 1.789
- ZNF433 Mean fold change: 1.676
- ZNF445 expression fold change: 1.297
- ZNF493 Mean fold change: 1.482
- ZNF500 expression fold change: 1.175
- ZNF547 expression fold change: 1.209
- ZNF554 expression fold change: 1.212
- ZNF558 Mean fold change: 1.502
- ZNF566 expression fold change: 1.349
- ZNF567 expression fold change: 1.133
- ZNF592 expression fold change: 1.148
- ZNF619 expression fold change: 1.402
- ZNF664 expression fold change: 1.294
- ZNF669 expression fold change: 1.198
- ZNF700 expression fold change: 1.242
- ZNF706 expression fold change: 1.373
- ZNF746 expression fold change: 1.115
- ZNF747 expression fold change: 1.143
- ZNF764 expression fold change: 1.241
- ZNF770 Mean fold change: 1.508
- ZNF780A expression fold change: 1.192
- ZNF780B expression fold change: 1.397
- ZNF800 expression fold change: 1.234
- ZRSR2 expression fold change: 1.249
- ZSCAN12 Mean fold change: 1.516
- ZSCAN30 Mean fold change: 1.472
- ZSWIM7 expression fold change: 1.339
- fold change in expression of gene APBB1: 0.456
- fold change in expression of gene C19orf21: 0.393
- fold change in expression of gene CACNG4: 0.431
- fold change in expression of gene CAV1: 0.418
- fold change in expression of gene CDKN2AIP: 0.467
- fold change in expression of gene CITED2: 0.434
- fold change in expression of gene COL9A3: 0.376
- fold change in expression of gene CRISPLD2: 0.367
- fold change in expression of gene CSDC2: 0.362
- fold change in expression of gene CTGF: 0.371
- fold change in expression of gene CYR61: 0.369
